{
  "source": "patent US20120238488A1",
  "about": "“COMPOUNDS AND METHODS FOR TREATING NEOPLASIA” (priority 2009, published 2012)",
  "key": {"[1]": {"system": "Na+/K+-ATPase (Adenosine 5′-Triphosphatase isolated from porcine cerebral cortex)", "experiment": "Na+/K+-ATPase inhibitory activity, colorimetric Adenosine 5'-Triphosphatase Enzymatic Assay", "type": "biochemical", "experimental": "The inhibitory effect of a compound of the invention on ATPase activity was assessed in vitro using the colorimetric Adenosine 5′-Triphosphatase Enzymatic Assay of Sigma (St. Louis, Mo.) according to the manufacturer's instructions. This assay utilizes Adenosine 5′-Triphosphatase isolated from porcine cerebral cortex. Each reaction was performed in a final volume of 250 μl using 0.5 units/ml enzyme in the presence of different inhibitors. […] IC50 values were determined using the Origin® program software (OriginLab, Northampton, Mass.)."}, "A549 (Lung)": {"system": "A549 (Lung)", "experiment": "SRB assay, A549", "type": "cell-based, human", "experimental": "(§1) SRB assays were performed according to standard National Cancer Institute Guidelines. Briefly, human tumor cells from different cancer panels were seeded into 96 well plates in 100 μL (plating densities ranging from 5-40,000 cells/well depending on the doubling time of individual cell lines) in serum-containing media for twenty-four hours prior to the addition of the compounds to be assayed. After 24 hours, one plate of each cell line was fixed in situ with trichloroacetic acid (TCA). The fixed slides were used to determine the cell population for each cell line at the time of drug addition (Tz). Each compound to be tested was solubilized in DMSO and the desired concentration was then added to the medium and diluted serially 1:10 to provide a total of five or ten drug concentrations plus control (in a final volume of 200 μL). The starting dose before any dilution was 100 uM for all compounds.\n(§2) Following drug addition, each culture was incubated for forty-eight hours. The assay was terminated with the addition of cold TCA. The supernatant was discarded, and the plates were washed with tap water and air dried. Sulforhodamine B (SRB) solution was then added to each well. After staining, the bound stain was solubilized and the absorbance was read on an automated plate reader at a wavelength of 515 nm.\n(§3) Using the absorbance measurements [time zero, (Tz), control growth, (C), and test growth in the presence of drug at the ten concentration levels (Ti)], the percentage growth was calculated at each of the drug concentrations levels. Percentage growth inhibition was calculated as:\n(§4) [(Ti−Tz)/(C−Tz)]×100 for concentrations for which Ti>/=Tz\n(§5) [(Ti−Tz)/Tz]×100 for concentrations for which Ti<Tz.\n(§6) Three dose response parameters were calculated for each experimental agent. Growth inhibition of 50% (GI50) was calculated from [(Ti−Tz)/(C−Tz)]×100=50, which was the drug concentration resulting in a 50% reduction in the net protein increase (as measured by SRB staining) in control cells during the drug. The drug concentration resulting in total growth inhibition (TGI) was calculated from Ti=Tz. The LC50 (concentration of drug resulting in a 50% reduction in the measured protein at the end of the drug treatment as compared to that at the beginning) indicating a net loss of cells following treatment was calculated from [(Ti−Tz)/Tz]×100=−50.\n(§7) Values were calculated for each of these three parameters when the level of activity was reached; however, if the effect was not reached or was exceeded, the value for that parameter was expressed as greater or less than the maximum or minimum concentration tested.\n(§8) Table 4 summarizes results characterizing the effects of compound Nos. 120, 12, 61, 1, and 56 on GI50, which measures the cell growth inhibitory power of the compound, TGI, which measures cytostatic effect (TGI) and LC50, which signifies cytotoxic effect. Each of these parameters in Table 4 was calculated in a sulforhodamine B (SRB) assay, which provides a colorimetric measure of a compound's anti-cancer activity. SRB assays were performed with compounds of the invention in 22 different cell lines (shaded in light gray in Table 4), which represent nine different tumor panels (lung, melanoma, ovary, prostate, CNS, breast, pancreas colon and renal). Ouabain and digoxin were used as controls. Paclitaxel was added as a non-Na^+K^+-ATPase inhibitor control."}, "ERVK (Lung)": {"system": "ERVK (Lung)", "experiment": "SRB assay, ERVK", "type": "cell-based, human", "conditions": "48 h", "experimental": "as §1, §2, §3, §4, §5, §6, §7, §8"}, "SKMEL28 (Melanoma)": {"system": "SKMEL28 (Melanoma)", "experiment": "SRB assay, SKMEL28", "type": "cell-based, human", "experimental": "as §1, §2, §3, §4, §5, §6, §7, §8"}, "MB435 (Melanoma)": {"system": "MB435 (Melanoma)", "experiment": "SRB assay, MB435", "type": "cell-based, human", "conditions": "48 h", "experimental": "as §1, §2, §3, §4, §5, §6, §7, §8"}, "OVCAR5 (Ovary)": {"system": "OVCAR5 (Ovary)", "experiment": "SRB assay, OVCAR5", "type": "cell-based, human", "experimental": "as §1, §2, §3, §4, §5, §6, §7, §8"}, "OVCAR3 (Ovary)": {"system": "OVCAR3 (Ovary)", "experiment": "SRB assay, OVCAR3", "type": "cell-based, human", "experimental": "as §1, §2, §3, §4, §5, §6, §7, §8"}, "ADRRES (Ovary)": {"system": "ADRRES (Ovary)", "experiment": "SRB assay, ADRRES (multidrug resistant NCI-ADR-RES)", "type": "cell-based, human", "experimental": "NCI-ADR-RES cells have been classified as ovarian cancer cells by the National Cancer Institute.\nas §1, §2, §3, §4, §5, §6, §7, §8\nTable 4 also presents results with Compound Nos. 120, 12, 61, 1, and 56 in a well characterized drug resistant cell line, NCI-ADR-RES, that expresses high levels of MDR1 and P-glycoprotein."}, "DU145 (Prostate)": {"system": "DU145 (Prostate)", "experiment": "SRB assay, DU145", "type": "cell-based, human", "experimental": "as §1, §2, §3, §4, §5, §6, §7, §8"}, "PCJ (Prostate)": {"system": "PCJ (Prostate)", "experiment": "SRB assay, PCJ", "type": "cell-based", "conditions": "Homo sapiens, 48 h", "experimental": "as §1, §2, §3, §4, §5, §6, §7, §8"}, "SF268 (CNS)": {"system": "SF268 (CNS)", "experiment": "SRB assay, SF268", "type": "cell-based", "conditions": "Homo sapiens", "experimental": "as §1, §2, §3, §4, §5, §6, §7, §8"}, "HCT116 (Colon)": {"system": "HCT116 (Colon)", "experiment": "SRB assay, HCT116", "type": "cell-based", "conditions": "Homo sapiens", "experimental": "as §1, §2, §3, §4, §5, §6, §7, §8"}, "CAKJ1 (Renal)": {"system": "CAKJ1 (Renal)", "experiment": "SRB assay, CAKJ1", "type": "cell-based, human", "conditions": "48 h", "experimental": "as §1, §2, §3, §4, §5, §6, §7, §8"}},
  "data": [
    {"smiles": "C[C@]12CCC(=NOCCN)C=C1CCC1C2CC[C@@]2(C)C1CC[C@@H]2O", "note": "(stereo partly drawn) [Compound 120, (1S,9aR,11aS)-17-hydroxy-10,13-dimethyl-6,7,8,9,10,11,12,13,14,15,16,17-dodecahydro-1H-cyclopenta[a]phenanthren-3(2H)-one O-2-aminoethyl oxime]", "values": [
      {"measurement": "Na+K+ ATPase inhibitory activity (in words)", "setting": "[1]", "value": "strong Na+K+ ATPase inhibitory activities"},
      {"measurement": "IC50", "setting": "[1]; 0.5 units/ml enzyme, five concentrations 10^−5 to 10^−9M, read-out: Na+ K+ Inhibitory Activity (IC50)", "value": 0.897, "unit": "µM"},
      {"measurement": "TGI", "setting": "A549 (Lung); A549, SRB, 48 h", "value": 62.82, "unit": "µM"},
      {"measurement": "CC50", "setting": "A549 (Lung); Homo sapiens, A549, 48 h, read-out: LC50", "value": "≥ 179", "unit": "µM"},
      {"measurement": "GI50", "setting": "A549 (Lung); Homo sapiens, A549, SRB, 48 h", "value": 6.91, "unit": "µM"},
      {"measurement": "TGI", "setting": "ERVK (Lung); ERVK, SRB", "value": 38.23, "unit": "µM"},
      {"measurement": "CC50", "setting": "ERVK (Lung); Homo sapiens, read-out: LC50", "value": "≥ 105", "unit": "µM"},
      {"measurement": "GI50", "setting": "ERVK (Lung); Homo sapiens, ERVK, SRB", "value": 4.57, "unit": "µM"},
      {"measurement": "CC50", "setting": "SKMEL28 (Melanoma); Homo sapiens, SK-MEL-28, 48 h, read-out: LC50", "value": 79.6, "unit": "µM"},
      {"measurement": "GI50", "setting": "SKMEL28 (Melanoma); Homo sapiens, SK-MEL-28, SKMEL28, SRB, 48 h", "value": 19.9, "unit": "µM"},
      {"measurement": "TGI", "setting": "SKMEL28 (Melanoma); SKMEL28, SRB, 48 h", "value": 49.74, "unit": "µM"},
      {"measurement": "CC50", "setting": "MB435 (Melanoma); Homo sapiens, read-out: LC50", "value": 98.9, "unit": "µM"},
      {"measurement": "GI50", "setting": "MB435 (Melanoma); Homo sapiens, MB435, SRB", "value": 7.29, "unit": "µM"},
      {"measurement": "TGI", "setting": "MB435 (Melanoma); MB435, SRB", "value": 38.95, "unit": "µM"},
      {"measurement": "CC50", "setting": "OVCAR5 (Ovary); Homo sapiens, OVCAR-5, 48 h, read-out: LC50", "value": 87.1, "unit": "µM"},
      {"measurement": "GI50", "setting": "OVCAR5 (Ovary); Homo sapiens, OVCAR-5, OVCAR5, SRB, 48 h", "value": 20.5, "unit": "µM"},
      {"measurement": "TGI", "setting": "OVCAR5 (Ovary); OVCAR5, SRB, 48 h", "value": 53.80, "unit": "µM"},
      {"measurement": "CC50", "setting": "OVCAR3 (Ovary); Homo sapiens, OVCAR-3, 48 h, read-out: LC50", "value": "> 100", "unit": "µM"},
      {"measurement": "GI50", "setting": "OVCAR3 (Ovary); Homo sapiens, OVCAR-3, OVCAR3, SRB, 48 h", "value": 6.5, "unit": "µM"},
      {"measurement": "TGI", "setting": "OVCAR3 (Ovary); OVCAR3, SRB, 48 h", "value": 41.51, "unit": "µM"},
      {"measurement": "TGI", "setting": "ADRRES (Ovary); ADRRES, SRB, 48 h", "value": 42.91, "unit": "µM"},
      {"measurement": "CC50", "setting": "ADRRES (Ovary); Homo sapiens, NCI/ADR-RES, 48 h, read-out: LC50", "value": 81.9, "unit": "µM"},
      {"measurement": "GI50", "setting": "ADRRES (Ovary); Homo sapiens, NCI/ADR-RES, ADRRES, SRB, 48 h", "value": 8.73, "unit": "µM"},
      {"measurement": "GI50 in NCI-ADR-RES cells compared to non-resistant MCF-7 cells", "setting": "ADRRES (Ovary); SRB", "value": "the same GI50 value"},
      {"measurement": "anti-tumor action in multidrug resistant cell line NCI-ADR-RES", "setting": "ADRRES (Ovary); SRB, cells express high levels of MDR1 and P-glycoprotein", "value": "potent anti-tumor action"},
      {"measurement": "TGI", "setting": "DU145 (Prostate); DU145, SRB, 48 h", "value": 13.54, "unit": "µM"},
      {"measurement": "CC50", "setting": "DU145 (Prostate); Homo sapiens, DU-145, 48 h, read-out: LC50", "value": 68.5, "unit": "µM"},
      {"measurement": "GI50", "setting": "DU145 (Prostate); Homo sapiens, DU-145, DU145, SRB, 48 h", "value": 5.87, "unit": "µM"},
      {"measurement": "CC50", "setting": "PCJ (Prostate); read-out: LC50", "value": 29.4, "unit": "µM"},
      {"measurement": "GI50", "setting": "PCJ (Prostate); PCJ, SRB", "value": 4.57, "unit": "µM"},
      {"measurement": "IC (TGI)", "setting": "PCJ (Prostate); PCJ, SRB", "value": 14.2, "unit": "µM"},
      {"measurement": "CC50", "setting": "SF268 (CNS); SF-268, 48 h, read-out: LC50", "value": 20.4, "unit": "µM"},
      {"measurement": "GI50", "setting": "SF268 (CNS); SF-268, SF268, SRB, 48 h, read-out: GI50", "value": 4.65, "unit": "µM"},
      {"measurement": "IC (TGI)", "setting": "SF268 (CNS); SF-268, SF268, SRB, 48 h, read-out: TGI", "value": 9.08, "unit": "µM"},
      {"measurement": "CC50", "setting": "HCT116 (Colon); HCT-116, 48 h, read-out: LC50", "value": 39.2, "unit": "µM"},
      {"measurement": "GI50", "setting": "HCT116 (Colon); HCT-116, HCT116, SRB, 48 h", "value": 4.28, "unit": "µM"},
      {"measurement": "IC (TGI)", "setting": "HCT116 (Colon); HCT-116, HCT116, SRB, 48 h", "value": 16.1, "unit": "µM"},
      {"measurement": "TGI", "setting": "CAKJ1 (Renal); CAKJ1, SRB", "value": 9.90, "unit": "µM"},
      {"measurement": "CC50", "setting": "CAKJ1 (Renal); Homo sapiens, read-out: LC50", "value": 61, "unit": "µM"},
      {"measurement": "GI50", "setting": "CAKJ1 (Renal); Homo sapiens, CAKJ1, SRB", "value": 4.91, "unit": "µM"}
    ]}
  ]
}
